Test results reported in US5156955A, “Nucleoside oxidase and assay method utilizing same” (priority 1988, dated 1992).
Like-named read-outs stand apart in the source and are kept apart here.

Columns and labels:
Format in all cases: biochemical, Pseudomonas maltophilia LB-86
nucleoside oxidase YT-1 [1] = conditions: for Effect of inhibitor (enzyme inhibited): statement in words
Description: A solution of the present enzyme (0.02 U) was caused to act on inosine at pH 6.0 and 25° C. for 10 minutes in the presence of various inhibitors, and the enzymatic activity was thereafter measured.

nucleoside oxidase YT-1 [2] = assay: Influence of metal ions on the activity; conditions: enzyme 0.02 U on inosine, pH 6.0, 25° C., 10 minutes
Description: A solution of the enzyme (0.02 U) was caused to act on inosine at pH 6.0 and 25° C. for 10 minutes in the presence of various metal ions, and the activity of the enzyme was thereafter measured to check the influence of the metal ions on the activity.

nucleoside oxidase YT-1 [3] = assay: Specificity test on laccase substrate (laccase-like activity in presence of inosine); conditions: 1 mM laccase substrate, 7 mM inosine, one unit enzyme, 5 minutes
Description: The present enzyme was tested for the substrate specificity of its laccase-like activity in the presence of 7 mM inosine in the following manner. One unit of the present enzyme was added to a specimen containing 7 mM of inosine and 1 mM of the laccase substrate shown in Table 5, and the mixture was allowed to stand for 5 minutes. The absorption spectrum of the specimen was obtained before and after the addition of the enzyme.

nucleoside oxidase YT-1 [4] = assay: Enzymatic activity test I: oxidation reaction products and stoichiometry; conditions: for change on reaction with the enzyme sample (HPLC): peak separated off by HPLC and reacted with enzyme
Description: During a reaction period of 0 to 800 minutes, the reaction muxture was partly collected at suitable time intervals and analyzed by high performance liquid chromatography (HPLC) with a column of Fine SIL C18 (product of Japan Spectroscopic Co., Ltd.) using as a solvent 50 mM phosphate buffer (pH 3.0)/methanol=95/5 at a flow rate of 1.5 ml/min. Absorption was detected at 260 nm.
The amount of oxygen consumption was determined by an oxygen electrode, the amount of P-2 produced from the peak area of HPLC, and the amount of hydrogen peroxide by the phenol-4-aminoantipyrine peroxidase method and the ferrithiocyanide method (Ronald Thurman et al., Eur. J. Biochem., 25, 420-430 (1972)).

nucleoside oxidase YT-1 [5] = assay: Substrate specificity test (nucleoside oxidase activity, oxygen consumption); conditions: relative to activity on inosine taken as 100
Description: The consumption of 1 μM of oxygen per minute is taken as 1 unit (U).

[6] = inhibitor 1 mM, enzyme 0.02 U on inosine, pH 6.0, 25° C., 10 minutes
[7] = inhibitor 10 mM, enzyme 0.02 U on inosine, pH 6.0, 25° C., 10 minutes

`O=C(O)CI` [Iodoacetic acid] gave a Relative activity (nucleoside oxidase YT-1 [1]; nucleoside oxidase yt-1, pH 6, 10 min, 1000 µM) of 100%.

In the case of `O=S(=O)([O-])[O-].[Mg+2]` [MgSO4], the Relative activity (nucleoside oxidase YT-1 [2]; metal salt 0.1 mM) is reported as 102%.

`O=S(=O)([O-])[O-].[Mn+2]` [MnSO4] was tested, and the Relative activity (nucleoside oxidase YT-1 [2]; metal salt 0.1 mM) was 103%.

With `O=C1CCC(=O)N1Br` [N-Bromosuccinimide] the Relative activity (nucleoside oxidase YT-1 [1]; [6]) was 0% and the “Effect of inhibitor (enzyme inhibited)” value (nucleoside oxidase YT-1 [1]) was “inhibited”.

`Cc1cc(O)cc(O)c1` [Orcinol] was tested, and the “Change in absorption spectrum due to reaction” value (“Change … to reaction” for short) (nucleoside oxidase YT-1 [3]) was “New peak at 340 nm”.

For `O=C[C@H]1O[C@@H](n2cnc3c(=O)[nH]cnc32)[C@H](O)[C@@H]1O` [P-1, inosine-5'-aldehyde], the oxygen consumption (nucleoside oxidase YT-1 [4]; 100 nanomoles of P-1, one U enzyme, 1 ml 100 mM phosphate buffer) was 48 nmol, the hydrogen peroxide formed (nucleoside oxidase YT-1 [4]; 100 nanomoles of P-1 as substrate) was “No hydrogen peroxide was detected” and the P-2 produced (nucleoside oxidase YT-1 [4]; from 100 nanomoles of P-1, one U enzyme) was 97 nmol. For the same molecule, the “change on reaction with the enzyme sample (HPLC)” value (nucleoside oxidase YT-1 [4]) was “changed into P-2 with consumption of oxygen”.

With `O=C(O)[C@H]1O[C@@H](n2cnc3c(=O)[nH]cnc32)[C@H](O)[C@@H]1O` [P-2, inosine-5'-carboxylic acid] the “change on reaction with the enzyme sample (HPLC)” value (nucleoside oxidase YT-1 [4]) was “exhibited no change”.

`CC(=O)[O-].CC(=O)[O-].[Pb+2]` [Pb(CH3 COO)2] showed a Relative activity (nucleoside oxidase YT-1 [1]; [6]) of 81.3%.

`O=S(=O)(F)Cc1ccccc1` [Phenylmethylsulfonyl fluoride] showed a Relative activity (nucleoside oxidase YT-1 [1]; [6]) of 95.3%.

In the case of `N#CO` [Potassium cyanate], the Relative activity (nucleoside oxidase YT-1 [1]; [6]) is reported as 34.8%, the Relative activity (nucleoside oxidase YT-1 [1]; [7]) is reported as 0% and the “Effect of inhibitor (enzyme inhibited)” value (nucleoside oxidase YT-1 [1]) is reported as “inhibited”. The “Effect of inhibitor (enzyme inhibited)” value (nucleoside oxidase YT-1 [1]; listed as potassium cianate) was “Inhibited”.

`Oc1cccc(O)c1O` [Pyrogallol] was tested, and the “Change … to reaction” value (nucleoside oxidase YT-1 [3]) was “New peak at 370 nm”.

`CCN(CC)CCCC(C)Nc1c2ccc(Cl)cc2nc2ccc(OC)cc12` (stereo not drawn) [Quinacrine] gave a Relative activity (nucleoside oxidase YT-1 [1]; [6]) of 95.6%.

For `CCN(CC)C(=S)S` [Sodium N,N'-Diethylditiocarbamate, Sodium N,N'-Diethylditio-carbamate], the Relative activity (nucleoside oxidase YT-1 [1]; [6]) was 271%.

In the case of `[N-]=[N+]=[N-]` [Sodium azide], the Relative activity (nucleoside oxidase YT-1 [1]; [6]) is reported as 81.5%, the Relative activity (nucleoside oxidase YT-1 [1]; [7]) is reported as 45.6% and the “Effect of inhibitor (enzyme inhibited)” value (nucleoside oxidase YT-1 [1]) is reported as “inhibited”.

With `Cc1cn([C@H]2C[C@H](O)[C@@H](CO)O2)c(=O)[nH]c1=O` [Thymidine] the Relative activity (nucleoside oxidase YT-1 [5]; substrate 10 mM) was 55.8%.

With `Cc1c[nH]c(=O)[nH]c1=O` [Thymine] the Relative activity (nucleoside oxidase YT-1 [5]; substrate 20 mM) was 0%.

Work on `O=c1cc[nH]c(=O)[nH]1` [Uracil] yielded a Relative activity (nucleoside oxidase YT-1 [5]; substrate 20 mM) of 0%.

`O=c1ccn([C@@H]2O[C@H](CO)[C@@H](O)[C@H]2O)c(=O)[nH]1` [Uridine] gave a Relative activity (nucleoside oxidase YT-1 [5]; substrate 10 mM) of 92.8%.

`O=c1[nH]c(=O)c2[nH]cnc2[nH]1` [Xanthine] was tested, and the Relative activity (nucleoside oxidase YT-1 [5]; substrate 0.4 mM) was 0%.

Molecule `O=c1[nH]c(=O)c2ncn([C@@H]3O[C@H](CO)[C@@H](O)[C@H]3O)c2[nH]1` [Xanthosine] has a Relative activity (nucleoside oxidase YT-1 [5]; substrate 10 mM) of 125%.

For `O=S(=O)([O-])[O-].[Zn+2]` [ZnSO4], the Relative activity (nucleoside oxidase YT-1 [2]; metal salt 0.1 mM) was 106% and the Relative activity (nucleoside oxidase YT-1 [2]; metal salt 1.0 mM) was 98.9%.

Molecule `c1cnc2c(c1)ccc1cccnc12` [o-Phenanthroline] has a Relative activity (nucleoside oxidase YT-1 [1]; [6]) of 94.7%.

With `Nc1ccc(O)cc1` [p-Aminophenol] the “Change … to reaction” value (nucleoside oxidase YT-1 [3]) was “New peak at 360 nm”.

For `Nc1ccc(N)cc1` [p-Phenylendiamine], the “Change … to reaction” value (nucleoside oxidase YT-1 [3]) was “New peak at 490 nm”.

For `O=C1C=CC(=O)C=C1` [p-Quinone], the “Change … to reaction” value (nucleoside oxidase YT-1 [3]) was “No change”.

With `c1ccc(-c2ccccn2)nc1` [α,α'-Dipyridyl] the Relative activity (nucleoside oxidase YT-1 [1]; [6]) was 96.7%.

With (NH4)6 Mo7 O24 the Relative activity (nucleoside oxidase YT-1 [2]; metal salt 0.1 mM) was 106% and the Relative activity (nucleoside oxidase YT-1 [2]; metal salt 1.0 mM) was 102%.

Mercury p-chorobenzoate gave a Relative activity (nucleoside oxidase YT-1 [1]; [6]) of 98.9%.
